Laboratory results: patent US20050014942A1, “Amide derivatives and drugs” (priority 2001, published 2005)
Counter-ions that a name gives are not always drawn.

Legend:
[1] = system: collagen production induced by TGF-β (TIG-3 cells); assay: Inhibitory effect on collagen production induced by TGF-β, [3H] proline uptake (TIG-3 cells); format: cell-based; conditions: Homo sapiens, TGF-β1 3 ng/ml
Description: (§1) As an index of collagen production, the uptake of [^3H] proline was measured.
(§2) Using a 96-well microplate, normal human skin derived fibroblast (NHDF, 10^4/well) or human embryonic lung fibroblast (TIG-3, 10^4/well) were cultured in a 10% fetal calf serum (FCS)-containing Dulbecco's modified Eagle medium (DMEM) for one day. After removing the culture supernatant, the cells were washed once with a 0.1% bovine serum albumin (BSA)-containing DMEM medium and then cultured in the 0.1% bovine serum albumin (BSA)-containing DMEM medium for one day. After adding each of the test compounds in each concentration (1, 3, 10 μM), the cells were cultured and, after adding TGF-β1 (3 ng/ml) and [^3H] proline (18.5 kBq/well), the cells were further cultured for additional one day.
(§3) After removing the culture supernatant, the cells were washed twice with a phosphate buffer solution (PBS) and dissolved with 0.3M NaOH and 1% sodium dodecylsulfate (SDS), and then each protein fraction was precipitated with trichloroacetic acid (TCA) After the precipitate was filtered through a glass filter (GF/B) and washed, the quantity of [^3H] proline on the glass filter was measured by a liquid scintillation counter. The number of cells was measured by a cell growth measuring kit (XTT, Roche) and the uptake of [^3H] proline was corrected by the number of cells. Inhibitory ratio was calculated as compared with the case where a difference between the uptake of [^3H] proline with or without TGF-β1.

[2] = Measurement of concentration of compound in rat plasma; format: in vivo; conditions: oral 10 mg/kg; for concentration at 0.25 h: after 0.25 hours; for concentration at 1 h: after 1 hour; for concentration at 4 h: after 4 hours
Description: Each of the test compounds was dissolved or suspended in methyl cellulose and the resulting solution or suspension was orally administered to rats at a dosage of 10 mg/kg and blood was collected after 0.25 hours, 1 hour and 4 hours. The concentration in plasma in each of the compounds was measured by HPLC.

[3] = system: collagen production induced by TGF-β (NHDF cells); assay: Inhibitory effect on collagen production induced by TGF-β, [3H] proline uptake (NHDF cells); format: cell-based, human; conditions: Homo sapiens, NHDF, TGF-β1 3 ng/ml
Description: as §1, §2, §3

mice = assay: Acute toxicity; format: in vivo; conditions: oral 1000 mg/kg, observed for a week after administration
Description: Each of the compounds in Examples 1, 9, 31, 120, and 121 was administered.

| melting point | Compound | inhibition at 3 µM [1] | inhibition at 10 µM [1] | concentration at 0.25 h [2] | concentration at 1 h [2] | concentration at 4 h [2] | inhibition at 1 µM [3] | inhibition at 3 µM [3] | inhibition at 10 µM [3] | Acute toxicity: deaths (mice) |
| --- | --- | --- | --- | --- | --- | --- | --- | --- | --- | --- |
| – | Cc1ccc2c(c1)c(C(=O)N1CCN(c3cnc(C(=O)NCc4ccco4)cn3)CC1)c(-c1ccccc1)n2C [Example 15, 5-{4-[(1,5-dimethyl-2-phenyl-1H-indol-3-yl)carbonyl]piperazin-1-yl}-N-(2-furylmethyl)pyrazine-2-carboxamide] | 82% | 140% | – | – | – | – | – | – | – |
| – | Cc1ccc2c(c1)c(C(=O)N1CCN(c3ccc(C(=O)N(CCO)Cc4ccccc4)cn3)CC1)c(-c1ccccc1)n2C [Example 60, 6-{4-[(1,5-dimethyl-2-phenyl-1H-indol-3-yl)carbonyl]piperazin-1-yl}-N-(2-hydroxyethyl)-N-benzylnicotinamide hydrochloride] | 70% | 133% | – | – | – | – | – | – | – |
| – | Cn1c(-c2ccccc2)c(/C=C/C(=O)N2CCC(n3c(=O)[nH]c4ccccc43)CC2)c2cccnc21 [Example 29, 1-{1-[(2E)-3-(1-methyl-2-phenyl-1H-pyrrolo[2,3-b]pyridin-3-yl)prop-2-enoyl]piperidin-4-yl}-1,3-dihydro-2H-benzimidazol-2-one hydrochloride] | – | – | 330 to 940 ng/mL | 280 to 1100 ng/mL | 170 to 710 ng/mL | 64% | 72% | 123% | – |
| – | Cc1ccc2c(c1)c(C(=O)N1CCN(c3ccccn3)CC1)c(-c1ccccc1)n2C [Compound A, 1-(1,5-dimethyl-2-phenylindol-3-ylcarbonyl)-4-(2-pyridyl)piperazine hydrochloride, reference compound] | 28% | 63% | 0 to 69 ng/mL | 55 to 120 ng/mL | 5 to 18 ng/mL | 8% | 9% | 30% | – |
| – | Cc1ccc2c(c1)c(C(=O)N1CCN(c3cnc(C(=O)NCc4c(C)noc4C)cn3)CC1)c(-c1ccccc1)n2C [Example 32, 5-{4-[(1,5-dimethyl-2-phenyl-1H-indol-3-yl)carbonyl]piperazin-1-yl}-N-[(3,5-dimethylisoxazol-4-yl)methyl]pyrazine-2-carboxamide] | 62% | 117% | – | – | – | – | – | – | – |
| – | Cc1ccc2c(c1)c(C(=O)N1CCN(c3ccc(C(=O)NCCO)cn3)CC1)c(-c1ccccc1)n2C [Example 1, 6-{4-[(1,5-dimethyl-2-phenyl-1H-indol-3-yl)carbonyl]piperazin-1-yl}-N-(2-hydroxyethyl)nicotinamide] | 21% | 56% | 2300 to 29000 ng/mL | 1300 to 7300 ng/mL | 750 to 940 ng/mL | – | – | – | no deaths were observed |
| – | COc1ccc(CNC(=O)/C=C/c2c(-c3ccccc3)n(C)c3ccccc23)cc1 [Example 2, (2E)-N-(4-methoxybenzyl)-3-(1-methyl-2-phenyl-1H-indol-3-yl)acrylamide] | 74% | 117% | – | – | – | 23% | 61% | 79% | – |
| – | CO[C@H]1Cc2ccccc2[C@H]1NC(=O)/C=C/c1c(-c2ccccc2)n(C)c2ncccc12 [Example 4, (2E)-N-[(1R,2S)-2-methoxy-2,3-dihydro-1H-inden-1-yl]-3-(1-methyl-2-phenyl-1H-pyrrolo[2,3-b]pyridin-3-yl)acrylamide hydrochloride] | – | – | 390 to 500 ng/mL | 490 to 590 ng/mL | 180 to 290 ng/mL | 41% | 70% | 138% | – |
| – | Cc1ccc2c(c1)c(C(=O)N1CCN(c3cnc(C(=O)NCCc4scnc4C)cn3)CC1)c(-c1ccccc1)n2C [Example 80, 5-{4-[(1,5-dimethyl-2-phenyl-1H-indol-3-yl)carbonyl]piperazin-1-yl}-N-[2-(4-methyl-1,3-thiazol-5-yl)ethyl]pyrazine-2-carboxamide] | 105% | 149% | – | – | – | – | – | – | – |
| 224.6 °C | Cc1ncsc1CCNC(=O)c1cnc(N2CCN(C(=O)c3c(-c4ccccc4)n(C)c4cccnc34)CC2)cn1 [Example 7, 5-{4-[(1-methyl-2-phenyl-1H-pyrrolo[3,2-b]pyridin-3-yl)carbonyl]piperazin-1-yl}-N-[2-(4-methyl-1,3-thiazol-5-yl)ethyl]pyrazine-2-carboxamide] | – | – | – | – | – | – | – | – | – |
| – | Cc1ccc2c(c1)c(C(=O)N1CCN(c3ccc(-c4nnn(CCO)n4)cn3)CC1)c(-c1ccccc1)n2C.Cl [Example 9, 1,5-dimethyl-2-phenyl-3-[(4-{5-[2-(2-hydroxyethyl)-2H-tetrazol-5-yl]pyridin-2-yl}piperazin-1-yl)carbonyl]-1H-indole hydrochloride] | 42% | 71% | 1300 to 3900 ng/mL | 720 to 2200 ng/mL | 350 to 530 ng/mL | – | – | – | no deaths were observed |
| – | Cc1ncsc1CCNC(=O)c1cnc(N2CCN(C(=O)c3c(-c4ccccc4)n(C)c4ncccc34)CC2)cn1 [Example 27, 5-{4-[(1-methyl-2-phenyl-1H-pyrrolo[2,3-b]pyridin-3-yl)carbonyl]piperazin-1-yl}-N-[2-(4-methyl-1,3-thiazol-5-yl)ethyl]pyrazine-2-carboxamide dihydrochloride] | – | – | 2400 to 4100 ng/mL | 1500 to 1900 ng/mL | – | 25% | 35% | 42% | – |
| – | Cc1ccc2c(c1)c(C(=O)N1CCN(c3ccc(C(=O)N(C)C)cn3)CC1)c(-c1ccccc1)n2C.Cl [Example 120, 6-{4-[(1,5-dimethyl-2-phenyl-1H-indol-3-yl)carbonyl]piperazin-1-yl}-N,N-dimethylnicotinamide hydrochloride] | – | – | 6400 to 10000 ng/mL | 3200 to 5700 ng/mL | 2500 to 3100 ng/mL | – | – | – | no deaths were observed |
| – | CC(=O)Nc1cnc(N2CCN(C(=O)c3c(-c4ccccc4)n(C)c4ccc(C)cc34)CC2)cn1 [Example 121, N-[5-{4-[(1,5-dimethyl-2-phenyl-1H-indol-3-yl)carbonyl]piperazin-1-yl}pyrazin-2-yl]acetamide] | – | – | 3900 to 5800 ng/mL | 2100 to 5800 ng/mL | 310 to 580 ng/mL | – | 39% | 54% | no deaths were observed |
| – | Cc1ccc2c(c1)c(C(=O)N1CCN(c3cnc(C(=O)NCCCn4ccnc4)cn3)CC1)c(-c1ccccc1)n2C [Example 31, 5-{4-[(1,5-dimethyl-2-phenyl-1H-indol-3-yl)carbonyl]piperazin-1-yl}-N-[3-(1H-imidazol-1-yl)propyl]pyrazine-2-carboxamide] | 36% | 90% | 320 to 370 ng/mL | 320 to 640 ng/mL | 420 to 650 ng/mL | – | – | 74% | no deaths were observed |
| – | Cc1ccc2c(c1)c(C(=O)N1CCN(c3cnc(C(=O)NCCc4ccccn4)cn3)CC1)c(-c1ccccc1)n2C [Example 76, 5-{4-[(1,5-dimethyl-2-phenyl-1H-indol-3-yl)carbonyl]piperazin-1-yl}-N-[2-(2-pyridyl)ethyl]pyrazine-2-carboxamide] | 78% | 101% | – | – | – | – | – | – | – |
